Results from patent publication US3956492A, “Pharmaceutical compositions containing a 3-(amino-methylene)-5-phenyl-1,4-benzodiazepin-2-one and method of use” (Boehringer Ingelheim GmbH, priority 1972, dated 1976).
Where two headings read alike, the source gives them in different places.

Columns and labels:
Assay type in all cases: in vivo
female NMRI-mice = assay: Muscle-relaxing and sedative activity by the method of Young and Lewis (holding ability in slowly rotating inclined wire-mesh cylinders); conditions: Mus musculus, po, 50% of animals fall out of cylinders
Method: The muscle-relaxing and sedative activities were tested by the method of Young and Lewis [Science 105, 368 (1947)]on female NMRI-mice of our own breed with a body weight between 20 and 26 gm by means of slowly turning wire-mesh cylinders, inclined at 30° from the vertical (length : 43 cm; diameter : 22 cm; mesh-size of the wire netting : 0.6 cm). After peroral administration of the test compound in the form of a 1% suspension in tylose to groups of 10 mice/dose their holding ability in the slowly rotating cylinders was tested (2 rotations/minute) against a control group. The median effective dose (ED50) was graphically determined which caused 50% of the animals to fall out of the cylinders at various time intervals after administration.

male NMRI-mice = assay: Anticonvulsive activity, protective effect against the maximum electro-shock-spasm; conditions: Mus musculus, po, p.o., 50% protected against tonic extensor component
Method: The anticonvulsive activity was tested in terms of the protective effect against the maximum electro-shock-spasm in male NMRI-mice of our own breed with a body weight between 20 and 26 gm analogous to Swinyard, Brown and Goodman [J. Pharmacol. exp. Therap. 106, 319 (1952)]. The animals were exposed to an alternating current of 50 cycles and 50 milliamperes (duration of stimulation 0.2 seconds), where the occurrence of the tonic extensor spasm was valued as positive. After peroral administration of the test compound in the form of a 1% suspension in tylose, the dose (ED50) was graphically determined which protected 50% of the animals against the tonic extensor component of the back extremities after various time intervals.

adult laboratory mice = assay: Standard acute toxicity tests; conditions: group of 10 adult laboratory mice
Method: It should be added that the compounds of the formula I are virtually non-toxic. For instance, by standard acute toxicity tests were determined that even massive doses of 6400 mgm/kg p.o. of compound A or 3200 mgm/kg p.o. of compounds B or C produced no deaths in a group of 10 adult laboratory mice within 14 days.

mice = assay: Effect on spontaneous motility (sedative activity); conditions: Mus musculus, po, motility decreased by 50% vs control animals
Text: The sedative activity was further determined on mice in terms of the decreasing effect upon the spontaneous motility. The motility of 8 mice per dose of test compound was compared to the motility of 8 control animals; each group was placed into separate motility-measuring cages (diameter : 25 cm), with 10 photoelectric cells in the floor and a light source above the cage. After peroral administration of the test compound the dose was graphically determined which decreased the motility by 50%, compared to the control animals, at various time intervals after administration.

[1] = after 30-60 min., read-out: ED50 after 30-60 min.
[2] = after 90-120 min., read-out: ED50 after 90-120 min.
[3] = after 210-240 min., read-out: ED50 after 210-240 min.
[4] = after 270-300 min., read-out: ED50 after 270-300 min.
[5] = 0.5 h, after 30 min., read-out: ED50 after 30 min.
[6] = 2.5 h, after 150 min., read-out: ED50 after 150 min.
[7] = 5 h, after 300 min., read-out: ED50 after 300 min.
[8] = after 90-95 min., read-out: ED50 after 90-95 min.
[9] = after 150-155 min., read-out: ED50 after 150-155 min.

Structure (SMILES) | ED50 (female NMRI-mice; [1]) [mg/kg] | ED50 (female NMRI-mice; [2]) [mg/kg] | ED50 (female NMRI-mice; [3]) [mg/kg] | ED50 (female NMRI-mice; [4]) [mg/kg] | ED50 (male NMRI-mice; [5]) [mg/kg] | ED50 (male NMRI-mice; [6]) [mg/kg] | ED50 (male NMRI-mice; [7]) [mg/kg] | deaths within 14 days (adult laboratory mice; 6400 mgm/kg p.o.) | deaths within 14 days (adult laboratory mice; 3200 mgm/kg p.o.) | ED50 (mice; [8]) [mg/kg] | ED50 (mice; [9]) [mg/kg]
CN1C(=O)C(=CN2CCOCC2)N=C(c2ccccc2Cl)c2cc(Cl)ccc21 [A, 7-chloro-5-(2'-chloro-phenyl)-1,3-dihydro-1-methyl-3-(morpholino-methylene)-2H-1,4-benzodiazepin-2-one] | 14 | 5 | 14 | 3 | 100 | 18 | 13 | no deaths | – | – | –
NC=C1N=C(c2ccccc2Cl)c2cc(Cl)ccc2NC1=O [B, 3-(amino-methylene)-7-chloro-5-(2'-chloro-phenyl)-1,3-dihydro-2H-1,4-benzodiazepin-2-one] | 13 | 3 | 10 | 11 | 85 | 28 | 43 | – | no deaths | – | –
CCNC=C1N=C(c2ccccc2Cl)c2cc(Cl)ccc2N(C)C1=O [C, 3-(ethylamino-methylene)-7-chloro-5-(2'-chloro-phenyl)-1,3-dihydro-1-methyl-2H-1,4-benzodiazepin-2-one] | 2 | 3 | 11 | 3 | 200 | 28 | 36 | – | no deaths | – | –
CN1C(=O)C(=CN)N=C(c2ccccc2Cl)c2cc(Br)ccc21 [Compound E, 3-(amino-methylene)-7-bromo-5-(2'-chloro-phenyl)-1,3-dihydro-1-methyl-2H-1,4-benzodiazepin-2-one] | 7 | 7 | 5 | 6 | 18 | 17 | 26 | – | – | – | –
CN1C(=O)C(=CN2CCOCC2)N=C(c2ccccc2Cl)c2cc(Br)ccc21 [D, 7-bromo-5-(2'-chloro-phenyl)-1,3-dihydro-1-methyl-3-(morpholino-methylene)-2H-1,4-benzodiazepin-2-one] | 33 | 26 | 16 | 13 | 200 | 31 | 34 | – | – | 4.4 | 5.2
NC=C1N=C(c2ccccc2Cl)c2cc(Br)ccc2NC1=O [F, 3-(amino-methylene)-7-bromo-5-(2'-chloro-phenyl)-1,3-dihydro-2H-1,4-benzodiazepin-2-one] | 0.5 | 0.7 | 0.7 | 1.9 | 70 | 14.5 | 16 | – | – | 8.15 | 3.76
CCNC=C1N=C(c2ccccc2Cl)c2cc(Br)ccc2NC1=O [G, 3-(ethylamino-methylene)-7-bromo-5-(2'-chloro-phenyl)-1,3-dihydro-2H-1,4-benzodiazepin-2-one] | 2.4 | 1.25 | 2.1 | 2.4 | 37 | 8.8 | 22 | – | – | 1.56 | 2.45
CN1C(=O)C(=CN)N=C(c2ccccc2Cl)c2cc(I)ccc21 [H, 3-(amino-methylene)-5-(2'-chloro-phenyl)-1,3-dihydro-7-iodo-1-methyl-2H-1,4-benzodiazepin-2-one] | 2.6 | 1.5 | 2.7 | 1.6 | 38 | 30 | 16 | – | – | – | –
